Laboratory results from patent publication US20040072770A1, “Methods for specifically inhibiting histone deacetylase-7 and 8” (priority 2002, published 2004).
d = 2'-deoxy (DNA); m = 2'-O-methyl

Assays:
[1] = system: Du145 cells; assay: Growth inhibition by antisense oligos, Du145; type: cell-based, human; conditions: 50 nM, 48 hour, vs cells treated with lipofectin
Description: (§1) For all ex vivo oligo treatment, human A549 human […] carcinoma cells were seeded in 10 cm tissue culture dishes one day prior to oligonucleotide treatment. The cell lines were obtained from the American Type Culture Collection (ATCC) (Manassas, Va.) and were grown under the recommended culture conditions. Before the addition of the oligonucleotides, cells were washed with PBS (phosphate buffered saline). Next, lipofectin transfection reagent (GIBCO BRL Mississauga, Ontario, Calif.), at a concentration of 6.25 μg/ ml, was added to serum free OPTIMEM medium (GIBCO BRL, Rockville, Md.), which was then added to the cells. The oligonucleotides were added directly to the cells (i.e., one oligonucleotide per plate of cells). Mismatched oligonucleotides were used as controls. The same concentration of oligonucleotide (e.g., 50 nM) was used per plate of cells for each oligonucleotide tested.
(§2) In order to determine the effect of HDAC ODNs on cell growth inhibition and cell death through apoptosis, A549, T24, DuI45, HCT116 cells (ATCC, Manassas, Va.), or HMEC cells (BioWhittaker, Walkersville, Md.) were treated with HDAC ODNs as previously described.
(§3) For the cell growth inhibition analysis, human cancer or normal cells were treated with 50 nM of paired AS or MM oligos directed against human HDAC-1, HDAC-7 or HDAC-8for up to 96 hours. Cell numbers were counted every day by trypan blue exclusion. Percentage of inhibition was calculated as (100 - AS cell numbers/control cell numbers)%.

[2] = system: T24 cells; assay: Apoptosis (Cell Death Detection ELISA), T24; type: cell-based, human; conditions: 50 nM, 48 hours, over mismatch control
Description: as §1, §2
(§4) For the apoptosis study, cells were analyzed using the Cell Death Detection ELISA^Plus kit (Roche Diagnostic GmBH, Mannheim, Germany) according to the manufacturer's directions. Typically, 10,000 cells were plated in 96-well tissue culture dishes for 2 hours before harvest and lysis. Each sample was analyzed in duplicate. ELISA reading was done using a MR700 plate reader (DYNEX Technology, Ashford, Middlesex, England) at 410 nm. The reference was set at 490 nm.

[3] = system: A549 cells; assay: Apoptosis (Cell Death Detection ELISA), A549; type: cell-based, human; conditions: 50 nM, 48 hours, over mismatch control
Description: as §1, §2, §4
[…] Similarly, A549 cells were treated with 20 nM of HDAC1 AS in combination with 20 nM of each of AS inhibitors against human HDAC2 to HDAC8. After 48 hour treatment, A549 cells were harvested and analyzed for apoptosis by ELISA as described previously. Apoptosis of A549 cells by AS inhibition was compared to that of cells treated with 1 uM TSA for 16 hours. […] The control oligo UMM had no effect on induction of apoptosis.

[4] = system: A549 cells; assay: Growth inhibition by antisense oligos, A549; type: cell-based, human; conditions: 50 nM, 48 hour, vs cells treated with lipofectin
Description: as §1, §2, §3

[5] = system: HCT116 cells; assay: Inhibition of agar colony formation, HCT116; type: cell-based, human; conditions: 50 nM oligos for 48 hours, vs cells treated with lipofectin
[6] = system: human HDAC-8 mRNA; assay: HDAC-8 mRNA expression in A549 cells, Northern blot; type: cell-based
Description: To identify antisense oligodeoxynucleotides (ODN) capable of inhibiting HDAC-8 expression in human cancer cells, fourteen phosphorothioate ODNs containing sequences complementary to the 5′ or 3′ UTR of the human […] (GenBank Accession No. AF230097) were initially screened in A549 cells at 100 nM. Cells were harvested after 24 hours of treatment, and HDAC-8 RNA expression was analyzed by Northern blot analysis. […] Total RNAs were harvested and were analyzed by Northern Blot. GAPDH expression was analyzed to indicate total RNA loading in each lane.
In order to determine the dose response of HDAC7 antisense inhibitors to reduce HDAC7 message at the mRNA level, Human A549 cells were treated with 25 or 50 nM of antisense (AS1 and AS2) oligos directed against human HDAC-7 or the corresponding mismatch of AS1 (MM1) oligo or an universal mismatch (UMM) for 24 hours. […] The time dependence of HDAC7 antisense inhibitors on blocking HDAC7 gene expression at the mRNA level was analyzed by treating A549 cells with 50 nM AS1 or MM1 oligos. […] Similarly, A549 cells were treated with 25 nM or 50 nM of AS1 or AS2 oligos directed against human HDAC-8 or its MM oligo for AS2 (MM2) for 24 hours. AS-2 oligo against human HDAC8 at 50 nM was also used to treat A549 cells for 24 or 48 hours.
as §1
Cells were harvested, and total RNAs were analyzed by Northern blot analysis. Briefly, total RNA was extracted using RNeasy miniprep columns (QIAGEN Canada, Mississauga, Ontario). Ten to twenty […] of total RNA was run on a formaldehyde-containing 1% agarose gel with 0.5 M sodium phosphate (pH 7.0) as the buffer system. RNAs were then transferred to nitrocellulose membranes and hybridized with the indicated radiolabeled DNA probes. Autoradiography was performed using conventional procedures.

[7] = system: human HDAC-6 RNA; assay: HDAC-6 RNA expression screen, Northern blot; type: cell-based; conditions: screened as above (T24 cells, 100 nM, 24 hours)
Description: (§5) To identify antisense oligodeoxynucleotide (ODN) capable of inhibiting HDAC-1 expression in human cancer cells, eleven phosphorothioate ODNs containing sequences complementary to the 5′ or 3′ UTR of the human HDAC-1 gene (GenBank Accession No. U50079) were initially screened in T24 cells at 100 nM. Cells were harvested after 24 hours of treatment, and HDAC-1 RNA expression was analyzed by Northern blot analysis. […] HDAC-1 MM oligo was created as a control; compared to the antisense oligo, it has a 6-base mismatch.
Thirteen phosphorothloate ODNs containing sequences complementary to the 5′ or 3′ untranslated regions of the human HDAC-6 gene (GenBank Accession No. AJ011972) were screened as above. […] HDAC-6 MM oligo was created as a control; compared to the antisense oligo, it contains a 7-base mismatch.

[8] = system: human HDAC-2 RNA; assay: HDAC-2 RNA expression screen, Northern blot; type: cell-based; conditions: screened as above (T24 cells, 100 nM, 24 hours)
Description: as §5
Twenty-four phosphorothioate ODNs containing sequences complementary to the 5′ or 3′ UTR of the human HDAC-2 gene (GenBank Accession No. U31814) were screened as above. […] HDAC-2 MM was created as a control; compared to the antisense oligo, it contains a 7-base mismatch.

[9] = system: MDAmb231 cells; assay: Inhibition of agar colony formation, MDAmb231; type: cell-based, human; conditions: 50 nM oligos for 48 hours, vs cells treated with lipofectin
[10] = system: MDAmb231 cells; assay: Growth inhibition by antisense oligos, MDAmb231; type: cell-based, human; conditions: 50 nM, 48 hour, vs cells treated with lipofectin
Description: [The procedure below names another cell line; the source lists this cell line under the same test.] as §1, with “tested. […]” for “tested.”
as §3

[11] = system: HCT116 cells; assay: Growth inhibition by antisense oligos, HCT116; type: cell-based, human; conditions: 50 nM, 48 hour, vs cells treated with lipofectin
Description: as §1, with “tested. […]” for “tested.”
as §3

[12] = system: MDAmb231 cells; assay: Apoptosis (Cell Death Detection ELISA), MDAmb231; type: cell-based, human; conditions: 50 nM, 48 hours, over mismatch control
[13] = system: mammalian HDAC; conditions: Yoshida et al., J. Biol. Chem. 265:17174-17179 (1990); cited from earlier work
[14] = system: murine erythroleukemia cells; conditions: Yoshida et al, Cancer Res. 47:3688-3691 (1987); cited from earlier work

Compound | Growth Inhibition Du145 [1] | Apoptosis T24 [2] | Apoptosis A549 [3] | Growth Inhibition A549 [4] | inhibition of agar colony formation HCT 116 [5] | also measured
5′-AGCCAGCTGCCACTTGAUGC-3′ (sugars from the 5' end m4 d12 m4, all phosphorothioate, methylation of C not given here) [HD8 AS2, antisense oligo, Human HDAC8 3′-UTR] | + (“+” means >35% inhibition of cell growth by antisense oligos (50 nM, 48 hour) compared to that of cells treated with lipofectin) | + (“+” means the induction of apoptosis at least 2 fold over mismatch control (50 nM, 48 hours)) | + (“+” means the induction of apoptosis at least 2 fold over mismatch control (50 nM, 48 hours)) | + (“+” means >35% inhibition of cell growth by antisense oligos (50 nM, 48 hour) compared to that of cells treated with lipofectin) | + (“+” means >35% inhibition of agar colony formation of cells treated with 50 nM oligos for 48 hours compared to that of cells treated with lipofectin) | HDAC-8 mRNA expression, dose response (FIG. 5) ([6]; 25 nM or 50 nM, 24 hours): inhibited in a dose-dependent manner; HDAC-8 mRNA expression, time course (FIG. 6) ([6]; 50 nM, 24 or 48 hours): significantly block HDAC8 expression at the mRNA level by 24 hours; HDAC-8 RNA expression, initial screen ([6]; 100 nM, 24 hours): good antisense activities
5′-CAGGCTGGAATGAGCTACAG-3′ (sugars from the 5' end m4 d12 m4, all phosphorothioate, methylation of C not given here) [HD6 AS, antisense oligo, Human HDAC6 3′-UTR] | – | – | – | – | – | HDAC-6 RNA expression, screen [7]: antisense activity to human HDAC-6
5′-GCUGAGCTGTTCTGATUUGG-3′ (sugars from the 5' end m4 d12 m4, all phosphorothioate, methylation of C not given here) [HD2 AS, antisense oligo, Human HDAC2 3′-UTR] | + (“+” means >35% inhibition of cell growth by antisense oligos (50 nM, 48 hour) compared to that of cells treated with lipofectin) | – | – | – | – | HDAC-2 RNA expression, screen [8]: antisense activity to human HDAC-2
5′-GCUGCCTGCCGTGCCCACCC-3′ (sugars from the 5' end m4 d12 m4, all phosphorothioate, methylation of C not given here) [HD4 AS1, antisense oligo, Human HDAC4 5′-UTR] | + (“+” means >35% inhibition of cell growth by antisense oligos (50 nM, 48 hour) compared to that of cells treated with lipofectin) | + (“+” means the induction of apoptosis at least 2 fold over mismatch control (50 nM, 48 hours)) | + (“+” means the induction of apoptosis at least 2 fold over mismatch control (50 nM, 48 hours)) | + (“+” means >35% inhibition of cell growth by antisense oligos (50 nM, 48 hour) compared to that of cells treated with lipofectin) | + (“+” means >35% inhibition of agar colony formation of cells treated with 50 nM oligos for 48 hours compared to that of cells treated with lipofectin) | inhibition of agar colony formation MDAmb 231 [9]: + (“+” means >35% inhibition of agar colony formation of cells treated with 50 nM oligos for 48 hours compared to that of cells treated with lipofectin); Growth Inhibition MDAmb 231 [10]: + (“+” means >35% inhibition of cell growth by antisense oligos (50 nM, 48 hour) compared to that of cells treated with lipofectin); Growth Inhibition HCT 116 [11]: + (“+” means >35% inhibition of cell growth by antisense oligos (50 nM, 48 hour) compared to that of cells treated with lipofectin); Apoptosis MDAmb 231 [12]: + (“+” means the induction of apoptosis at least 2 fold over mismatch control (50 nM, 48 hours))
CC(/C=C/C(=O)NO)=C\[C@@H](C)C(=O)c1ccc(N(C)C)cc1 [TSA, (R)-Trichostatin A] | – | – | – | – | – | inhibition of mammalian HDAC [13]: potent inhibitor; induction of differentiation [14]: potent inducer of differentiation
